# Test results: patent US20220296774A1, “SUPRAMOLECULAR STRUCTURES” (Cellularevolution Limited, priority 2019, published 2022)
# No end group written: not given here. C16 = N-terminal C16 lipid
# Assays:
# Format in all cases: cell-based
# [1] = tested on: human adipose-derived mesenchymal stem cells (hASCs); experiment: Collagen deposited by hASCs (Sirius Red assay); details: 7 days in culture, not significant
# Procedure: (§1) The amount of collagen deposited by the cells is investigated using the Sirius Red assay (Jimenez et al., 1985). In specific, cells are fixed in 70% ice-cold ethanol and transferred to −80° C. for at least 10 min to ensure the complete fixation of the material. Subsequently, the ethanol solution is removed and each well was gently washed with distilled water. Cells are treated with Sirius-red/picric acid solution (Sigma Aldrich) and incubated overnight at 4° C. with gentle agitation. The following day, any unbound dye is removed and cells were gently rinsed with distilled water. Cells are then treated with 500 μl of 1M NaOH (Fisher Scientific) at room temperature for 10 min under agitation to disperse the solution and 100 μL aliquots of each sample were then transferred in triplicate to a 96 well plate. The total collagen is calculated by comparing the absorbance of the resulting samples at 490 nm, read using either a Multiskan Ascent™ or a Varioskan™ Lux (both from Thermo Fisher Scientific), to that of known standard concentrations of collagen. Each tested condition is performed in triplicate. • 1.5 Atomic Force Microscopy (AFM)
# (§2) Moreover, hASCs were also cultured with Lumican or Matrixyl lipopeptides previously solubilised above their c.a.c. in water and then diluted in SFM at the final concentration of 50 μM (FIG. 5).
# [2] = tested on: human stromal progenitor cells; experiment: Human stromal progenitor cell proliferation (Alamar Blue), lipopeptides as media supplement
# Procedure: (§3) Cell proliferation can be evaluated via Alamar Blue assays, with cell number extrapolated from standard calibration curves using known number of cells for each experiment. Cells are incubated at 37° C. with resazurin reagent at 50 μM (Sigma Aldrich), prepared in 1:10 dilution using fresh culture medium, for […], after which 100 μl of culture supernatants (in triplicate) are sampled for fluorescence emission analysis at 590 nm using either a Fluoroskan Ascent fluorescent spectrophotometer or a Varioskan™ Lux (both from Thermo Scientific). The incubation time differ depending on the experiment and on the cell type. • 1.4 Collagen Deposit Assay
# (§4) The effect of the different nanostructure on biocompatibility and bioactivity was investigated next. For this study, the lipopeptides were used as a media supplement, rather than coating. The bioactivity of the lipopeptides has been evaluated for three different cell types, namely human stromal progenitor cells, human adipose-derived mesenchymal stem cells (hASCs) and immortalized mouse myoblast cell line (C2C12). • 2.2.1 Effect on Human Stromal Progenitor Cells
# (§5) The inventors hypothesised that the effect exerted by the same lipopeptide molecule can be different depending on the solvent in which the self-assembly is initiated. Lumican, Matrixyl and RGDS lipopeptides were investigated as supplements to culture media using stock solutions which were previously self-assembled either in water or in medium. Specifically, cells were cultured for 7 days and proliferation was assessed at day 3 and 7, whereas collagen deposition was analysed at day 7.
# [3] = tested on: immortalized mouse myoblast cell line (C2C12); experiment: C2C12 proliferation (Alamar Blue); details: solubilised in medium; 25 and 50 μM; since day 3
# Procedure: as §3
# C2C12 were cultured up to 7 days in serum-free medium (SFM) supplemented either with Lumican or Matrixyl or RGDS lipopeptides. Each lipopeptide stock was prepared above its c.a.c. either in serum-free medium (SFM) or in water (H2O). C2C12 proliferation was evaluated using Alamar Blue assay at day 3 and 7. The amount of deposited collagen was quantified using the Sirius Red assay at day 7.
# [4] = tested on: human stromal progenitor cells; experiment: Collagen deposited by human stromal progenitor cells (Sirius Red assay); details: for amount of collagen deposited, higher compared to PA self-assembled in medium: self-assembled in water
# Procedure: as §1, §4, §5
# [5] = tested on: human adipose-derived mesenchymal stem cells (hASCs); experiment: hASC proliferation (Alamar Blue); details: 50 μM; day 3 and 7; not significant
# Procedure: as §3
# The hASCs were also cultured with RGDS lipopeptide previously solubilised above its c.a.c. in water and then diluted in SFM at the final concentration of 50 μM (FIG. 4). This was to understand if the different self-assembled structures affected hASCs behaviour as found for human stromal progenitor cell.
# as §2
# [6] = tested on: immortalized mouse myoblast cell line (C2C12); experiment: Collagen deposited by C2C12 (Sirius Red assay); details: 25 and 50 μM; day 7
# Procedure: as §1, with “Each tested condition is performed in triplicate. • 1.5 Atomic Force Microscopy (AFM)” left out
# C2C12 were cultured up to 7 days in serum-free medium (SFM) supplemented either with Lumican or Matrixyl or RGDS lipopeptides. […] C2C12 proliferation was evaluated using Alamar Blue assay at day 3 and 7. The amount of deposited collagen was quantified using the Sirius Red assay at day 7.
Substance,collagen deposited by hASCs ([1]; solubilised in water),"cell proliferation compared to non-supplemented SFM ([2]; self-assembled in medium, 12 and 25 μM)","cell proliferation compared to non-supplemented serum free medium (SFM) ([2]; self-assembled in water, supplemented at 25 μM and 12 μM, day 3 and 7)",cell proliferation [3],"collagen deposition compared to the control (SFM) ([4]; independently of the solvent (water or medium) of self-assembly, 7 days)","amount of collagen deposited, higher compared to PA self-assembled in medium ([4]; 12 μM, 7 days) [%]","amount of collagen deposited, higher compared to PA self-assembled in medium ([4]; 25 μM, 7 days)",cell proliferation when solubilised in medium rather than water [5],collagen deposited when solubilised in SFM rather than water [6],collagen deposited by hASCs ([1]; solubilised in SFM),"cell viability compared to the control ([2]; self-assembled in SFM, day 7, both conditions)","amount of deposited collagen compared to the control ([4]; self-assembled in SFM, day 7)","amount of deposited collagen, higher compared to lipopeptide self-assembled in water ([4]; self-assembled in SFM, day 7) [%]"
C16-YEALRVANEVTLN [Lumican lipopeptide],slightly increased the collagen deposited,slightly increased cell proliferation only up to day 3,significantly increased cell proliferation,significantly increased cell proliferation,significantly increased collagen deposition,15,≈ 75%,slightly increase cell proliferation,significantly increased,–,–,–,–
C16-KTTKS [Matrixyl lipopeptide],–,–,–,significantly increased,–,–,–,slightly increase cell proliferation,significantly increased,slightly increased the collagen deposited,dramatically decreased cell viability,significantly increased the amount of deposited collagen,55
